Read-outs that look alike come from different tables or passages of the source.
Key:
[1] = test system: mono-methyl arginine in RKO cells; experiment: RKO Methylation Assay, In Cell Western (ICW) for mono-methyl arginine and DNA content; format: cell-based; details: Homo sapiens, RKO, 72 h
Text: RKO adherent cells were purchased from ATCC (American Type Culture Collection), Manassas, Va., USA. DMEM/Glutamax medium, penicillin-streptomycin, heat inactivated fetal bovine serum, 0.05% trypsin and D-PBS were purchased from Life Technologies, Grand Island, N.Y., USA. Odyssey blocking buffer, 800CW goat anti-rabbit IgG (H+L) antibody, and Licor Odyssey infrared scanner were purchased from Licor Biosciences, Lincoln, Nebr., USA. Mono-methyl arginine antibody was purchased from Cell Signaling Technology, Danvers, Mass., USA. Methanol was purchased from VWR, Franklin, Mass., USA. 10% Tween 20 was purchased from KPL, Inc., Gaithersburg, Md., USA. DRAQ5 was purchased from Biostatus Limited, Leicestershire, UK.
RKO adherent cells were maintained in growth medium (DMEM/Glutamax medium supplemented with 10% v/v heat inactivated fetal bovine serum and 100 units/mL penicillin-streptomycin) and cultured at 37° C. under 5% CO2.
Cell Treatment, in Cell Western (ICW) for Detection of Mono-Methyl Arginine and DNA Content.
RKO cells were seeded in assay medium at a concentration of 20,000 cells per mL to a poly-D-lysine coated 384 well culture plate (BD Biosciences 356697) with 50 μL per well. Compound (100 nL) from a 96-well source plate was added directly to 384 well cell plate. Plates were incubated at 37° C., 5% CO2 for 72 hours. After three days of incubation, plates were brought to room temperature outside of the incubator for ten minutes and blotted on paper towels to remove cell media. 50 μL of ice cold 100% methanol was added directly to each well and incubated for 30 min at room temperature. After 30 min, plates were transferred to a Biotek EL406 plate washer and washed 2 times with 100 μL per well of wash buffer (1×PBS). Next 60 μL per well of Odyssey blocking buffer (Odyssey Buffer with 0.1% Tween 20 (v/v)) were added to each plate and incubated 1 hour at room temperature. Blocking buffer was removed and 20 μL per well of primary antibody was added (mono-methyl arginine diluted 1:200 in Odyssey buffer with 0.1% Tween 20 (v/v)) and plates were incubated overnight (16 hours) at 4° C. Plates were washed 5 times with 100 μL per well of wash buffer. Next 20 μL per well of secondary antibody was added (1:200 800CW goat anti-rabbit IgG (H+L) antibody, 1:1000 DRAQ5 (Biostatus limited) in Odyssey buffer with 0.1% Tween 20 (v/v)) and incubated for 1 hour at room temperature. The plates were washed 5 times with 100 μL per well wash buffer then 2 times with 100 μL per well of water. Plates were allowed to dry at room temperature then imaged on the Licor Odyssey machine which measures integrated intensity at 700 nm and 800 nm wavelengths. Both 700 and 800 channels were scanned.
First, the ratio for each well was determined by:
Each plate included fourteen control wells of DMSO only treatment (minimum activation) as well as fourteen control wells for maximum activation treated with 20 μM of a reference compound. The average of the ratio values for each control type was calculated and used to determine the percent activation for each test well in the plate. Reference compound was serially diluted three-fold in DMSO for a total of nine test concentrations, beginning at 20 μM. Percent activation was determined and EC30 curves were generated using triplicate wells per concentration of compound.

human PRMT6 = target: T1, human PRMT6 (Homo sapiens, UniProt Q96LA8); experiment: PRMT6 Biochemical Assay (3H-SAM Flashplate, peptide substrate)
T1 construct: Flag-PRMT6-His; made in house; host or cells: HEK 293F cells (BacMam baculovirus)
T1 sequence (Q96LA8 with tags, fused parts or gaps): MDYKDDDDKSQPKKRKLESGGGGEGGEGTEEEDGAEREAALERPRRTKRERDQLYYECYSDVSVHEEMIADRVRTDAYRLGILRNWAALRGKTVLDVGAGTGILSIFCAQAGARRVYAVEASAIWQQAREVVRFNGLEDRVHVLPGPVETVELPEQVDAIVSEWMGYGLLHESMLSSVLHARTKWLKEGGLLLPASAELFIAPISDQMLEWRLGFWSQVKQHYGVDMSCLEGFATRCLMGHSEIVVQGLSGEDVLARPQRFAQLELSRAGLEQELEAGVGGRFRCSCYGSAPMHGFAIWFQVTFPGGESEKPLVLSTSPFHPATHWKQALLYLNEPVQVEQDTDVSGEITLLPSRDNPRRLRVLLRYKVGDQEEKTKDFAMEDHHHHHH
Text: (§1) S-adenosylmethionine (SAM), S-adenosylhomocysteine (SAH), bicine, Tween20, dimethylsulfoxide (DMSO), bovine skin gelatin (BSG), sodium butyrate and Tris(2-carboxyethyl)phosphine hydrochloride solution (TCEP) were purchased from Sigma-Aldrich at the highest level of purity possible. ^3H-SAM was purchase from American Radiolabeled Chemicals with a specific activity of 80 Ci/mmol. 384-well streptavidin Flashplates were purchased from PerkinElmer.
Peptide representative of human histone H4 residues 36-50 was synthesized with an N-terminal linker-affinity tag motif and a C-terminal amide cap by 21st Century Biochemicals.
The amplified gene was subcloned into pFastBacMam (Viva Biotech).
Recombinant baculovirus were generated according to Bac-to-Bac kit instructions (Life Technologies). […] Infections were carried out at 37° C. for 48 hours, harvested by centrifugation, and stored at −80° C. for purification.
Column was washed with 20 mM imidazole in the same buffer and Flag-PRMT6-His was eluted with 150 mM imidazole. […] Flag-PRMT6-His was eluted with 200 ug/ml FLAG peptide in the same buffer. Pooled fractions were dialysed in 20 mM Tris, 150 mM NaCl, 10% glycerol and 5 mM β-mercaptoethanol, pH 7.8.
General Procedure for PRMT6 Enzyme Assays on Peptide Substrates.
(§2) The assays were all performed in a buffer consisting of 20 mM Bicine (pH=7.6), 1 mM TCEP, 0.005% BSG, and 0.002% Tween 20, prepared on the day of use. […] DMSO (1 ul) was added to Columns 11, 12, 23, 24, rows A-H for the maximum signal control and 1 ul of SAH, a known product and inhibitor of PRMT6, was added to columns 11, 12, 23, 24, rows I-P for the minimum signal control. A cocktail (40 ul) containing the PRMT6 enzyme was added by Multidrop Combi (Thermo-Fisher). The compounds were allowed to incubate with PRMT6 for 30 min at room temperature, then a cocktail (10 ul) containing SAM and peptide was added to initiate the reaction (final volume=51 ul). […] The assays were stopped by the addition of non-radiolabeled SAM (10 ul) to a final concentration of 400 uM, which dilutes the ^3H-SAM to a level where its incorporation into the peptide substrate is no longer detectable. 50 ul of the reaction in the 384-well polypropylene plate was then transferred to a 384-well Flashplate and the biotinylated peptides were allowed to bind to the streptavidin surface for at least 1 hour before being washed once with 0.1% Tween20 in a Biotek ELx405 plate washer. The plates were then read in a PerkinElmer TopCount plate reader to measure the quantity of ^3H-labeled peptide bound to the Flashplate surface, measured as disintegrations per minute (dpm) or alternatively, referred to as counts per minute (cpm).
(§3) Where dpm=disintegrations per minute, cmpd=signal in assay well, and min and max are the respective minimum and maximum signal controls.
(§4) Where top and bottom are the normally allowed to float, but may be fixed at 100 or 0 respectively in a 3-parameter fit. The Hill Coefficient normally allowed to float but may also be fixed at 1 in a 3-parameter fit. Y is the % inhibition and X is the compound concentration.

human PRMT1 = target: T2, human PRMT1 (Homo sapiens, UniProt Q99873); experiment: PRMT1 Biochemical Assay (3H-SAM Flashplate, peptide substrate); details: single experiment or average of multiple experiments
T2 construct: GST-tagged PRMT1; made in house; host or cells: High Five insect cells (baculovirus)
T2 sequence (Q99873 with tags, fused parts or gaps): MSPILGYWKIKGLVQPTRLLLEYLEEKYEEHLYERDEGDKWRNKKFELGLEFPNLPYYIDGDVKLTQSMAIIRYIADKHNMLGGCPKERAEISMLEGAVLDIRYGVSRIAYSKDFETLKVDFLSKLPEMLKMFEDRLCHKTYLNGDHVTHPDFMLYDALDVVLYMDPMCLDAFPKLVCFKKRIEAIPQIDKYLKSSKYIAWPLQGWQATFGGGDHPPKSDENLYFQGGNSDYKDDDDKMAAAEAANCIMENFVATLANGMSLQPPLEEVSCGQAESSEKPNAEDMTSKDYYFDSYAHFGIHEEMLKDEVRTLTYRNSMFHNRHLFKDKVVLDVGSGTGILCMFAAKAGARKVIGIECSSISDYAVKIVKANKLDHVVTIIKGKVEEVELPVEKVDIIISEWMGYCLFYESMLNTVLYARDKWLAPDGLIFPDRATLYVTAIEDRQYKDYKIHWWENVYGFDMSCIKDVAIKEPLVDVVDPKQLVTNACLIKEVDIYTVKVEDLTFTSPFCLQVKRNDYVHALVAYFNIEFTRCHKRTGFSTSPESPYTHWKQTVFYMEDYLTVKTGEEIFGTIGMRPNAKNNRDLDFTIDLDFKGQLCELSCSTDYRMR
Text: as §1, with “(BSG),” for “(BSG), sodium butyrate”
Recombinant baculovirus were generated according to Bac-to-Bac kit instructions (Life Technologies). […] Infections were carried out at 27° C. for 48 hours, harvested by centrifugation, and stored at −80° C. for purification.
GST-tagged PRMT1 was eluted with 50 mM Tris, 2 mM glutathione, pH 7.8, dialysed in buffer A and concentrated to 1 mg/mL.
General Procedure for PRMT1 Enzyme Assays on Peptide Substrates.
as §2, with “PRMT1,” for “PRMT6,”, “PRMT1” for “PRMT6”, “300” for “400”
as §3, §4

[2] = RKO cells, 72 hours, mono-methyl arginine, percent activation, single experiment or average of multiple experiments, read-out: EC30 (In Cell Western data, Numerical)
[3] = Biochemical IC50 PRMT6, single experiment or average of multiple experiments
[4] = single experiment or average of multiple experiments, read-out: Biochemical IC50 PRMT6
[5] = RKO cells, 72 hours, mono-methyl arginine, percent activation, class symbols, read-out: EC30 (In Cell Western data)

Compound | IC50 (human PRMT6; [3]) [µM] | EC30 [1, 2] [µM] | IC50 (human PRMT6; Biochemical IC50 PRMT6) [µM] | other results
CNCCN(C)Cc1c[nH]nc1-c1ccc(OC(C)C)cc1 [Compound 19, N^1-((3-(4-isopropoxyphenyl)-1H-pyrazol-4-yl)methyl)-N^1,N^2-dimethylethane-1,2-diamine] | 0.0106 | 0.067 | – | –
COCCn1cc(CN(C)CCN(C)C)c(-c2ccc(F)cc2)n1 [Compound 61] | > 10 | – | > 10 | –
COCCn1ncc(CN(C)CCN(C)C)c1-c1ccc(F)cc1 [Compound 64] | 1.57 | – | – | –
CN(CCN)Cc1cn(CC(O)CO)nc1-c1ccc(F)cc1 (stereo not drawn) [Compound 76] | 2.73 | – | – | IC50 (human PRMT1): 6.39 µM
CN(CCN)Cc1cn(CC2COC2)nc1-c1ccc(F)cc1 [Compound 79] | > 10 | > 20 | > 10 | –
CN(CCN)Cc1cnn(CC2COC2)c1-c1ccc(F)cc1 [Compound 80] | > 10 | > 20 | > 10 | –
CN(CCN)Cc1c(-c2ccc(C#N)cc2)cnn1C [Compound 84] | > 10 | – | > 10 | –
CN(CCN1CCCC1)Cc1c[nH]nc1-c1ccc(C#N)cc1 [Compound 139] | > 10 | > 20 | > 10 | –
CN(CCN)Cc1c[nH]nc1-c1ccc(N2CCN(C(=O)Cc3ccccc3)CC2)cc1 [Compound 190] | – | 8.39 | – | IC50 (human PRMT6; [4]): 0.0201 µM
CN(CCN)Cc1c[nH]nc1-c1ccc(Oc2ccccc2)cc1 [Compound 200] | – | 0.596 | – | –
CNCCN(C)Cc1cnn(C)c1-c1ccc(OC(C)C)c(Cl)c1 [Compound 220, N^1-((5-(3-chloro-4-isopropoxyphenyl)-1-methyl-1H-pyrazol-4-yl)methyl)-N^1,N^2-dimethylethane-1,2-diamine] | – | 0.211 | – | IC50 (human PRMT6; [4]): 0.0231 µM
COCCn1cnc(-c2ccc(C#N)cc2)c1CN(C)CCN [Compound 223] | > 10 | > 20 | > 10 | –
CNCCN(C)Cc1c[nH]nc1-c1ccc(Oc2cccc(C(=O)NC)c2)cc1 [Compound 263] | 0.00192 | – | – | EC30 ([1]; read-out: EC30 (In Cell Western data, Numerical, μM)): 1.29 µM; IC50 (human PRMT1): 0.00435 µM
CCC(CO)Oc1ccc(-c2n[nH]cc2CN(C)CCNC)cc1 (stereo not drawn) [Compound 287] | – | 0.202 | < 0.1 | EC30 [1, 5]: < 3 µM; IC50 (human PRMT6; [4]): 0.0248 µM

More lines, main results first:

IC50 (human PRMT6; [3]) [µM] | Compound | EC30 [1, 2] [µM] | IC50 (human PRMT6; Biochemical IC50 PRMT6) [µM] | other results
2.37 | CN(CCN)Cc1cn(CC2CCOCC2)nc1-c1ccc(F)cc1 [Compound 128] | – | – | IC50 (human PRMT1): 6.5 µM
0.0133 | CN(CCN)Cc1c[nH]nc1-c1ccc(OCCCN2CCOCC2)cc1 [Compound 186] | 12.8 | – | –
0.00924 | CNCCN(C)Cc1cn[nH]c1-c1ccc(OC(C)C)c(Cl)c1 [Compound 201] | 0.255 | – | –
0.00474 | CNCCN(C)Cc1c[nH]nc1-c1ccc(Oc2ccccc2)c(C#N)c1 [Compound 234] | – | – | IC50 (human PRMT1): 0.00775 µM
0.00318 | CNCCN(C)Cc1c[nH]nc1-c1ccc(Oc2cccc(C(=O)N(C)C)c2)cc1 [Compound 264] | 3.52 | – | –
0.00273 | CNCCN(C)Cc1n[nH]cc1-c1ccc(Oc2cccc(C(=O)N(C)C)c2)cc1 [Compound 269] | 14.9 | – | –
0.00517 | CNCCN(C)Cc1n[nH]cc1-c1ccc(Oc2ccccc2C(=O)NC)cc1 [Compound 278] | 8.23 | – | –
0.0246 | CCOc1ccc(-c2n[nH]cc2CN(C)CCNC)cc1 [Compound 294] | 0.224 | < 0.1 | EC30 [1, 5]: < 3 µM

From patent US9776972B2, “Pyrazole derivatives as arginine methyltransferase inhibitors and uses thereof” (priority 2013, dated 2017)
